Here are results for two compounds from patent publication US20030186870A1, “Therapeutic methods and compositions for the treatment of impaired interpersonal and behavioral disorders” (priority 1999, published 2003).

Where no end group is shown, it is not given here.

In series [1] the test system is male rats. The conditions noted are these: cited from earlier work.
In series [2] the test system is male Wistar rats. The experiment in a line: Irwin test. The class given is in vivo, rat. The settings on record: tail vein injection. As to the method: An Irwin test was performed on 12 male Wistar rats (Iffa Credo, L'Arbresles, France), weighing 260-280 g. They were housed in groups of 4 in a climate controlled room with a 12h light:dark cycle (light 8:00 PM-8:00 AM) and had access to food and water ad libitum. After a seven day acclimatization period, the rats were weighed, identified and randomly assigned to one of the four treatment groups. The drug was injected to the tail vein of the rats according to the group dose.
Observations were performed 15, 30, 60 and 120 minutes after administration. Among the most noticeable results are the results concerning the awareness state of the rats.

Regarding `CC[C@H](C)[C@@H]1NC(=O)[C@H](Cc2ccc(O)cc2)NC(=O)[C@@H](N)CSSC[C@@H](C(=O)N2CCC[C@H]2C(=O)N[C@@H](CC(C)C)C(=O)NCC(N)=O)NC(=O)[C@H](CC(N)=O)NC(=O)[C@H](CCC(N)=O)NC1=O` [oxytocin], in series [1] (high doses), the locomotion entry is reported as “decrease locomotion”. In addition, the anxiolytic-like effect entry in series [1] (low doses) was “anxiolytic-like effect”. QHNPR [FG-005, Gln-His-Asn-Pro-Arg]: the aggressiveness result in series [2] is “not associated with an increase of aggressiveness”.
